Laboratory results: patent publication US9447100B2, “Substituted pyrazolo[1,5-A] pyrimidines as calcium receptor modulating agents” (Takeda Pharmaceutical Company Limited, priority 2002, dated 2016)
Where a name gives a salt, the structure may show the parent alone.

CCC(CC)(NC(=O)c1c(C)nn2c1N[C@@H](c1ccccc1)CC2(C)C)c1ccc(C(=O)O)cc1 [Example 1076, (5R)-4-(1-ethyl-1-(((-2,7,7-trimethyl-5-phenyl-4,5,6,7-tetrahydropyrazolo[1,5-a]pyrimidin-3-yl)carbonyl)amino)propyl) benzoic acid]
melting point: 234 to 236 °C

CCC(CC)(NC(=O)c1cnn2c1NC(c1ccccn1)CC2(C)C)c1ccc(F)cc1 (centres unmarked) [Example 601, N-(1-ethyl-1-(4-fluorophenyl)propyl)-7,7-dimethyl-5-(2-pyridinyl)-4,5,6,7-tetrahydropyrazolo[1,5-a]pyrimidine-3-carboxamide]
melting point: 167 to 169 °C

CCC(CC)(NC(=O)c1cnn2c1NC(c1ccccc1)CC2(C)C)c1ccc(C(=O)OC)cc1 (centres unmarked) [Example 678, methyl 4-(1-(((7,7-dimethyl-5-phenyl-4,5,6,7-tetrahydropyrazolo[1,5-a]pyrimidin-3-yl)carbonyl)amino)-1-ethylpropyl)benzoate]
melting point: 180 to 181 °C

COc1ccccc1C1CC(C(F)(F)F)n2ncc(C(=O)O)c2N1 (centres unmarked) [Example 30, 5-(2-methoxyphenyl)-7-(trifluoromethyl)-4,5,6,7-tetrahydropyrazolo[1,5-a]pyrimidine-3-carboxylic acid]
melting point: 189 to 190 °C

CCC(CC)(NC(=O)c1cnn2c1NC(c1ccccc1)CC21CCCC1)c1ccc(C(F)(F)F)cc1 (centres unmarked) [Example 191, N-(1-ethyl-1-(4-(trifluoromethyl)phenyl)propyl)-5′-phenyl-5′,6′-dihydro-4′H-spiro[cyclopentane-1,7′-pyrazolo[1,5-a]pyrimidine]-3′-carboxamide]
melting point: 205 to 207 °C

CCC1(NC(=O)c2cnn3c2NC(c2ccccc2)CC3(C)C)CCCC1 (centres unmarked) (as salt: HCl) [Example 588, N-(1-ethylcyclopentyl)-7,7-dimethyl-5-phenyl-4,5,6,7-tetrahydropyrazolo[1,5-a]pyrimidine-3-carboxamide]
melting point: 140 to 142 °C

CCC(CC)(NC(=O)c1cnn2c1NC(c1ccccc1)CC2(C)C)c1ccc(OC(C)=O)cc1 (centres unmarked) [Example 728, 4-(1-(((7,7-dimethyl-5-phenyl-4,5,6,7-tetrahydropyrazolo[1,5-a]pyrimidin-3-yl)carbonyl)amino)-1-ethylpropyl)phenyl acetate]
melting point: 171 to 172 °C

CCOC(=O)c1ccc(C(CC)(CC)NC(=O)c2c(C)nn3c2NC(c2ccccc2)CC3(C)C)cc1 (centres unmarked) [Example 954, ethyl 4-(1-ethyl-1-(((2,7,7-trimethyl-5-phenyl-4,5,6,7-tetrahydropyrazolo[1,5-a]pyrimidin-3-yl)carbonyl)amino)propyl) benzoate]
melting point: 152 to 153 °C

O=C(NC12CC3CC(CC(C3)C1)C2)c1cnn2c1NC(c1ccccc1Cl)CC2C(F)(F)F (centres unmarked) [Example 281, N-(1-adamantyl)-5-(2-chlorophenyl)-7-(trifluoromethyl)-4,5,6,7-tetrahydropyrazolo[1,5-a]pyrimidine-3-carboxamide]
melting point: 256 to 257 °C

Cc1nn2c(c1C(=O)O)NC(c1cccc(F)c1)CC2(C)C (centres unmarked) [Example 945, 5-(3-fluorophenyl)-2,7,7-trimethyl-4,5,6,7-tetrahydropyrazolo[1,5-a]pyrimidine-3-carboxylic acid]
melting point: 153 to 155 °C

CCC(CC)(NC(=O)c1cnn2c1NC(c1ccccc1)CC2(C)C)c1ccc(C#N)cc1 (centres unmarked) [Example 574, N-(1-(4-cyanophenyl)-1-ethylpropyl)-7,7-dimethyl-5-phenyl-4,5,6,7-tetrahydropyrazolo[1,5-a]pyrimidine-3-carboxamide]
melting point: 237 to 238 °C

CCC(=O)Oc1ccc(C(CC)(CC)NC(=O)c2cnn3c2NC(c2ccccc2)CC3(C)C)cc1 (centres unmarked) [Example 729, 4-(1-(((7,7-dimethyl-5-phenyl-4,5,6,7-tetrahydropyrazolo[1,5-a]pyrimidin-3-yl)carbonyl)amino)-1-ethylpropyl)phenyl propionate]
melting point: 172 to 173 °C

CC1(C)C[C@H](c2ccccc2)Nc2c(C(=O)NC34CC5CC(CC(C5)C3)C4)cnn21 [Example 1030, (5R)-N-1-adamantyl-7,7-dimethyl-5-phenyl-4,5,6,7-tetrahydropyrazolo[1,5-a]pyrimidine-3-carboxamide]
melting point: 226 to 227 °C

CCC(CC)(NC(=O)c1cnn2c1NC(c1ccccc1)CC2(C)C)c1cccc(F)c1 (centres unmarked) [Example 615, N-(1-ethyl-1-(3-fluorophenyl)propyl)-7,7-dimethyl-5-phenyl-4,5,6,7-tetrahydropyrazolo[1,5-a]pyrimidine-3-carboxamide]
melting point: 180 to 181 °C

CC1(C)CC(c2ccccc2)Nc2c(C(=O)NC3(C(=O)O)CCCCC3)cnn21 (centres unmarked) [Example 625, 1-(((7,7-dimethyl-5-phenyl-4,5,6,7-tetrahydropyrazolo[1,5-a]pyrimidin-3-yl)carbonyl)amino)cyclo-hexanecarboxylic acid]
melting point: 215 to 216 °C

CCC(CC)(NC(=O)c1cnn2c1NC(c1cccc(OC)c1)CC2(C)C)c1ccc(C)cc1 (centres unmarked) (as salt: HCl) [Example 820, N-(1-ethyl-1-(4-methylphenyl)propyl)-5-(3-methoxyphenyl)-7,7-dimethyl-4,5,6,7-tetrahydropyrazolo[1,5-a]pyrimidine-3-carboxamide]
melting point: 168 to 169 °C

COc1ccc(C2CC(C)(C)n3ncc(C(=O)O)c3N2)cc1 (centres unmarked) [Example 942, 5-(4-methoxyphenyl)-7,7-dimethyl-4,5,6,7-tetrahydropyrazolo[1,5-a]pyrimidine-3-carboxylic acid]
melting point: 196 to 197 °C

CCC1(NC(=O)c2cnn3c2NC(c2ccccc2)CC3(C)C)CCOCC1 (centres unmarked) [Example 582, N-(4-ethyltetrahydro-2H-pyran-4-yl)-7,7-dimethyl-5-phenyl-4,5,6,7-tetrahydropyrazolo[1,5-a]pyrimidine-3-carboxamide]
melting point: 104 to 105 °C

CCC(CC)(NC(=O)c1cnn2c1NC(c1ccccc1)CC2(C)C)c1ccc(I)cc1 (centres unmarked) [Example 667, N-(1-ethyl-1-(4-iodophenyl)propyl)-7,7-dimethyl-5-phenyl-4,5,6,7-tetrahydropyrazolo[1,5-a]pyrimidine-3-carboxamide]
melting point: 182 to 183 °C

O=C(CNC(=O)c1cnn2c1N[C@H](c1ccccc1)C[C@@H]2C(F)(F)F)c1cc2ccccc2o1 (stereo in doubt) [Example 285, N-(2-(1-benzofuran-2-yl)-2-oxoethyl)-5-phenyl-7-(trifluoromethyl)-4,5,6,7-tetrahydropyrazolo[1,5-a]pyrimidine-3-carboxamide]
melting point: 244 to 245 °C

O=C(O)c1cnn2c1NC(c1ccccc1)C1CCCCC12 (centres unmarked) [Example 39, 5-phenyl-4,5,5a,6,7,8,9,9a-octahydropyrazolo[1,5-a]quinazoline-3-carboxylic acid]
melting point: 158 to 160 °C

CC(C)(CC1Cc2ccccc2C1)NC(=O)c1cnn2c1NC(c1ccccc1)CC2C(F)(F)F (centres unmarked) [Example 292, N-(2-(2,3-dihydro-1H-inden-2-yl)-1,1-dimethylethyl)-5-phenyl-7-(trifluoromethyl)-4,5,6,7-tetrahydropyrazolo[1,5-a]pyrimidine-3-carboxamide]
melting point: 221 to 222 °C

CCC(CC)(NC(=O)c1c(C)nn2c1N[C@@H](c1ccccc1)CC2(C)C)c1ccc(CO)cc1 (as salt: HCl) [Example 1075, (5R)-N-(1-ethyl-1-(4-(hydroxymethyl)phenyl)propyl)-2,7,7-trimethyl-5-phenyl-4,5,6,7-tetrahydropyrazolo[1,5-a]pyrimidine-3-carboxamide]
melting point: 168 to 169 °C
